The values that follow come from ChEMBL document CHEMBL1201862, “PubChem BioAssay data set” (2004).

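Grown in 96-well plates, cells were treated for 48 hours with each compound at five concentrations. Insufficient inhibition: endpoint recorded as highest concentration tested. The concentration for 50% growth inhibition is given as GI50.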 Calls of active or inactive are those of the source. Cut-off read from the data, not from the text of the source: active = GI50 up to about 1.1 µM and inactive = higher. Where only a bound is given, the exact number is not on record here.

Some test systems named below: A549; DU-145; HCT-15; HOP-92; IGROV-1; LOX IMVI; MCF7; NCI-H226; NCI-H460; NCI/ADR-RES; PC-3; RPMI-8226; SF-268; SF-295; SK-MEL-5; SN12C; SW-620; T47D; U-251; UO-31.
What all share (experiment): NCI tumour cell line growth inhibition, 48 h

Turning to `CC(C)(C)CC(C)(C)c1ccc(O)c(C[N+](C)(C)[O-])c1`, the GI50 was > 100 µM (inactive) in the test on A549; > 100 µM (inactive) with DU-145; greater than 100 µM with HCT-15; 77.4 µM (inactive) in the test on HOP-92; > 100 µM (inactive) with IGROV-1; > 100 µM (inactive) with LOX IMVI. Further, the GI50 with MCF7 is 80 µM (inactive); with NCI-H226, > 100 µM (inactive); in the test on NCI-H460, > 100 µM (inactive); in the test with NCI/ADR-RES, > 100 µM (inactive); in the test on PC-3 it was 85.7 µM (inactive); with RPMI-8226, 62.2 µM (inactive). Moreover, the GI50 with SF-268 is 85.5 µM (inactive); in the test on SF-295, > 100 µM (inactive); in the test on SK-MEL-5, 58.9 µM (inactive); in the test on SN12C, > 100 µM (inactive); with SW-620 it was > 100 µM (inactive); in the test with T47D it was 68.2 µM (inactive). In addition, the results for the GI50 in the test with U-251 and in the test with UO-31 were > 100 µM (inactive) and 60.1 µM (inactive), respectively.

With `C=C(C)[C@H]1CC(=O)[C@@]2(C)C[C@H]3O[C@]3(C)CC/C=C(\C)CC[C@H]12`, the GI50 in the test on A549 is 58.1 µM (inactive); in the test on DU-145 it was 99.5 µM (inactive); with HCT-15, 47.2 µM; in the test with HOP-92 it was 64.1 µM (inactive); in the test with IGROV-1 it was 73.1 µM (inactive); with LOX IMVI it was 57.5 µM (inactive). For the same molecule, the GI50 is 24.8 µM (inactive) in the test on MCF7; 31.7 µM (inactive) in the test on NCI-H226; 45.7 µM (inactive) in the test with NCI-H460; 35.4 µM (inactive) in the test on NCI/ADR-RES; 34.7 µM (inactive) with PC-3; 33.4 µM (inactive) in the test on RPMI-8226. Besides, the GI50 in the test on SF-268 is 77.3 µM (inactive); in the test with SF-295 it was > 100 µM (inactive); in the test with SK-MEL-5 it was 32.2 µM (inactive); with SN12C, 23.6 µM (inactive); in the test with SW-620, 42.3 µM (inactive); in the test on T47D it was 38.4 µM (inactive). Also, the GI50 in the test on U-251 is 51.9 µM (inactive); in the test with UO-31 it was 57.1 µM (inactive).

Turning to `COC(=O)[C@@H](NC(=O)c1ccc(CNC(=O)/C(C)=C/c2ccccc2)cc1)C(C)C`, the GI50 in the test on A549 is > 100 µM (inactive); in the test on DU-145 it was > 100 µM (inactive); in the test with HCT-15, greater than 100 µM; with HOP-92, > 100 µM (inactive); in the test on IGROV-1, > 100 µM (inactive); in the test with LOX IMVI, 59.2 µM (inactive). Further, the GI50 was 42.2 µM (inactive) in the test on MCF7; > 100 µM (inactive) with NCI-H226; 65 µM (inactive) in the test on NCI-H460; > 100 µM (inactive) in the test with NCI/ADR-RES; > 100 µM (inactive) with PC-3; 69.8 µM (inactive) with RPMI-8226. For the same molecule, the GI50 was > 100 µM (inactive) in the test with SF-268; > 100 µM (inactive) in the test on SF-295; 68.4 µM (inactive) in the test on SK-MEL-5; > 100 µM (inactive) in the test with SN12C; > 100 µM (inactive) with SW-620; 56.2 µM (inactive) in the test with T47D. The GI50 in the test on U-251 and in the test on UO-31 was > 100 µM (inactive) each time.

For `O=C1CSC2(CC(/C=C/c3cccc(Br)c3)=NN2c2cccc(S(=O)(=O)O)c2)N1c1nc2ccccc2s1` (stereo not given), the GI50 in the test with A549 is > 100 µM (inactive); in the test with DU-145, > 100 µM (inactive); in the test with HCT-15, greater than 100 µM; in the test on HOP-92, > 49.7 µM (inactive); in the test with IGROV-1 it was 58.6 µM (inactive); in the test on LOX IMVI, > 82.6 µM (inactive). Moreover, the GI50 is 65.6 µM (inactive) in the test with MCF7; > 100 µM (inactive) in the test with NCI-H226; > 100 µM (inactive) in the test on NCI-H460; > 100 µM (inactive) with NCI/ADR-RES; > 100 µM (inactive) in the test on PC-3; 25.5 µM (inactive) with RPMI-8226. The GI50 with SF-268 was > 100 µM (inactive); with SF-295, > 100 µM (inactive); in the test with SK-MEL-5, > 100 µM (inactive); in the test with SN12C, > 100 µM (inactive); in the test on SW-620, > 100 µM (inactive); with T47D it was 38.5 µM (inactive). Also, the GI50 in the test with U-251 was > 100 µM (inactive); in the test on UO-31 it was > 96.6 µM (inactive).

As to `O=C(Sc1c(-c2ccccc2)c(=O)n(-c2ccccc2)c(=S)n1-c1ccccc1)c1cccs1`, the GI50 was > 100 µM (inactive) with A549; > 100 µM (inactive) in the test with DU-145; 34.7 µM in the test with HCT-15; 50 µM (inactive) with HOP-92; 49.7 µM (inactive) with IGROV-1; 11.4 µM (inactive) in the test with LOX IMVI. Moreover, the GI50 in the test with MCF7 was 50.4 µM (inactive); in the test with NCI-H226, > 100 µM (inactive); in the test on NCI-H460 it was > 100 µM (inactive); in the test with NCI/ADR-RES it was 50.8 µM (inactive); with PC-3 it was 73.8 µM (inactive); in the test with RPMI-8226 it was 24.4 µM (inactive). The GI50 in the test with SF-268 is > 100 µM (inactive); in the test with SF-295 it was 61 µM (inactive); in the test on SK-MEL-5, 19.2 µM (inactive); with SN12C, 50.4 µM (inactive); in the test on SW-620 it was 24.6 µM (inactive); with T47D, > 100 µM (inactive). Also, the GI50 with U-251 was 84.1 µM (inactive); in the test with UO-31, > 100 µM (inactive).

As to `COC(=O)C1(Cc2ccccc2)Cc2ccccc2C1`, the GI50 in the test on A549 was 26.7 µM (inactive); with DU-145, 30.8 µM (inactive); in the test on HCT-15, 26.1 µM; with HOP-92, 11.5 µM (inactive); in the test on IGROV-1, 28.4 µM (inactive); with LOX IMVI, 20.5 µM (inactive). Besides, the GI50 in the test on MCF7 was 25.1 µM (inactive); with NCI-H226 it was 25.6 µM (inactive); with NCI-H460 it was 25.5 µM (inactive); in the test with NCI/ADR-RES, 21.9 µM (inactive); in the test with PC-3, 29.7 µM (inactive); in the test with RPMI-8226, 20.4 µM (inactive). The GI50 in the test with SF-268 is 23.1 µM (inactive); with SF-295 it was 36.5 µM (inactive); with SK-MEL-5, 15.7 µM (inactive); with SN12C, 25.4 µM (inactive); in the test with SW-620 it was 35 µM (inactive); with T47D, 21.5 µM (inactive). For the same molecule, the GI50 is 25.8 µM (inactive) with U-251 and 7.73 µM (inactive) with UO-31.

Consider `O=C(/C=C/c1cccc2ccccc12)c1ccccc1`, for which the GI50 in the test on A549 was 15.2 µM (inactive); in the test with DU-145, 14.8 µM (inactive); in the test on HCT-15, 6.85 µM; in the test with HOP-92, 18.3 µM (inactive); in the test on IGROV-1 it was 7.45 µM (inactive); in the test with LOX IMVI it was 1.99 µM (inactive). Also, the GI50 is 1.29 µM (inactive) in the test with MCF7; 12.7 µM (inactive) with NCI-H226; 16.1 µM (inactive) with NCI-H460; 14 µM (inactive) in the test on NCI/ADR-RES; 7.05 µM (inactive) in the test with PC-3; 2.31 µM (inactive) in the test on RPMI-8226. Also, the GI50 was 16.5 µM (inactive) in the test with SF-268; 16.5 µM (inactive) in the test on SF-295; 12.5 µM (inactive) in the test on SK-MEL-5; 7.89 µM (inactive) in the test with SN12C; 4 µM (inactive) in the test on SW-620; 11.7 µM (inactive) in the test on T47D. Further, the GI50 with U-251 was 8.63 µM (inactive); with UO-31, 11.6 µM (inactive).

Take `COc1ccc(/C=C/C(=O)c2cccc(C(=O)/C=C/c3ccc(OC)c(OC)c3)n2)cc1OC`: the GI50 was > 100 µM (inactive) in the test on A549; > 100 µM (inactive) with DU-145; 14 µM in the test on HCT-15; > 100 µM (inactive) in the test on HOP-92; 25.9 µM (inactive) in the test on IGROV-1; 2.02 µM (inactive) in the test with LOX IMVI. Besides, the GI50 is 3.64 µM (inactive) in the test with MCF7; > 100 µM (inactive) in the test with NCI-H226; 96.8 µM (inactive) with NCI-H460; 24.8 µM (inactive) in the test with NCI/ADR-RES; 29 µM (inactive) in the test with PC-3; 3.23 µM (inactive) in the test on RPMI-8226. Besides, the GI50 was 36.9 µM (inactive) with SF-268; > 73.8 µM (inactive) in the test with SF-295; 98.4 µM (inactive) in the test on SK-MEL-5; 15.5 µM (inactive) in the test on SN12C; 3.53 µM (inactive) in the test with SW-620; > 49.3 µM (inactive) in the test on T47D. The GI50 with U-251 was 6.52 µM (inactive); in the test with UO-31 it was 16.4 µM (inactive).
